Assays:
WDR5 = WDR5 (Homo sapiens, UniProt P61964); assay: WDR5 HTRF binding assay; conditions: read-out: (a) WDR5 HTRF Pep Val v.1[Inhibitor/IC50]Qualified AC50
In short: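 In this HTRF displacement format, biotinylated MLL1 WIN peptide (3762-3773, 20 nM) binds WDR5 (6 nM) in 25 mM Hepes pH 7.5 with 100 mM NaCl, 2 mM DTT and 0.1% BSA for 20 min at rt. Detection used streptavidin-APC/anti-His-Eu for 1 hr. IC50 came from dose-response fits of normalized signal; 15 nM biotin-PEG-His peptide served as counter assay.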

MV4-11 cells = assay: MV4-11 6-day cell growth CTG (CellTiter-Glo) assay; format: cell-based; conditions: Homo sapiens, MV4-11, 144 h, 6 days, read-out: (c) MLL/WDR5 cell proliferation assay//MLL/WDR5 proliferation MV4:11 Qualified AC50
In short: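 IC50 comes from a dose-response fit of % inhibition relative to DMSO controls, with viable cells measured by CellTiter-Glo luminescence. Compounds were tested over 12 points (1:3, starting at 50 μM final) on MV4-11 cells plated at 300/well and grown 6 days.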

[1] = molecular target: wild type MLL1 four-member complex (MLL1-4C) (Homo sapiens, UniProt P61964); assay: MLL1 LC-MS assay (SAH production); format: biochemical; conditions: read-out: (b) MLL LCMS Peptide Val.v.1 Qualified AC50
In short: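 SAH formation, measured by LC-MS/MS after a TFA quench containing d4-SAH, was normalised to no-compound and no-enzyme controls and fitted to a dose-response curve for IC50. Reactions ran 120 min at rt (pH 8.0 Tris buffer) with final 30 nM MLL1 four-member complex, 2.5 μM SAM and 10 μM biotinylated H3[1-21] peptide, after a 20-min enzyme/SAM-compound preincubation.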

Row | SMILES | IC50 (WDR5) [nM] | AC50 [1] [nM] | AC50 (MV4-11 cells) [nM]
1 | CCOc1cc([C@H](C)N2CCc3c(cc(CCN(C)CC)cc3-c3cn(C)c(=O)cc3Cl)C2=O)ncc1C#N [Example 175, (S)-6-(1-(5-(4-chloro-1-methyl-6-oxo-1,6-dihydropyridin-3-yl)-7-(2-(ethyl(methyl)amino)ethyl)-1-oxo-3,4-dihydroisoquinolin-2(1H)-yl)ethyl)-4-ethoxynicotinonitrile] | < 10 | 10 to 1000 | 10 to 1000
2 | CCOc1cc([C@H](C)N2CCc3c(cc(CCN(C)CC)cc3-c3c[nH]c(=O)cc3C(F)(F)F)C2=O)ncc1C#N [Example 176, (S)-4-ethoxy-6-(1-(7-(2-(ethyl(methyl)amino)ethyl)-1-oxo-5-(6-oxo-4-(trifluoromethyl)-1,6-dihydropyridin-3-yl)-3,4-dihydroisoquinolin-2(1H)-yl)ethyl)nicotinonitrile] | < 10 | 10 to 1000 | < 10
3 | CCOc1cc([C@H](C)N2CCc3c(cc(CCN(C)CC)cc3-c3cc(C(F)F)cnc3C)C2=O)ncc1C#N [Example 177, (S)-6-(1-(5-(5-(difluoromethyl)-2-methylpyridin-3-yl)-7-(2-(ethyl(methyl)amino)ethyl)-1-oxo-3,4-dihydroisoquinolin-2(1H)-yl)ethyl)-4-ethoxynicotinonitrile] | < 10 | 10 to 1000 | 10 to 1000
4 | CCOc1cc([C@H](C)N2CCc3c(cc(CCN(C)CC)cc3-c3ccc(N)nc3Cl)C2=O)ncc1C#N [Example 178, (S)-6-(1-(5-(6-amino-2-chloropyridin-3-yl)-7-(2-(ethyl(methyl)amino)ethyl)-1-oxo-3,4-dihydroisoquinolin-2(1H)-yl)ethyl)-4-ethoxynicotinonitrile] | < 10 | 10 to 1000 | 10 to 1000
5 | CCOc1cc(CN2CCc3c(cc(CCN(C)CC)cc3-c3cc(C)ncc3C)C2=O)ncc1C#N [Example 179, 6-((5-(2,5-dimethylpyridin-4-yl)-7-(2-(ethyl(methyl)amino)ethyl)-1-oxo-3,4-dihydroisoquinolin-2(1H)-yl)rnethyl)-4-ethoxynicotinonitrile] | < 10 | 10 to 1000 | 10 to 1000
6 | CCOc1cc(CN2CCc3c(cc(CCN(C)CC)cc3-c3cc(N)ncc3C)C2=O)ncc1C#N [Example 180, 6-((5-(2-amino-5-methylpyridin-4-yl)-7-(2-(ethyl(methyl)amino)ethyl)-1-oxo-3,4-dihydroisoquinolin-2(1H)-yl)rnethyl)-4-ethoxynicotinonitrile] | < 10 | 10 to 1000 | 10 to 1000
7 | CCOc1cc([C@H](C)N2CCc3c(cc(CCN(C)CC)cc3-c3cc4ocnc4nc3C)C2=O)ncc1C#N [Example 181, (S)-4-ethoxy-6-(1-(7-(2-(ethyl(methyl)amino)ethyl)-5-(5-methyloxazolo[4,5-b]pyridin-6-yl)-1-oxo-3,4-dihydroisoquinolin-2(1H)-yl)ethyl)nicotinonitrile] | < 10 | 10 to 1000 | 10 to 1000
8 | CCOc1cc([C@H](C)N2CCc3c(cc(CCN(C)CC)cc3-c3cn(C)c(=O)cc3C(F)(F)F)C2=O)ncc1C#N [Example 182, (S)-4-ethoxy-6-(1-(7-(2-(ethyl(methyl)amino)ethyl)-5-(1-methyl-6-oxo-4-(trifluoromethyl)-1,6-dihydropyridin-3-yl)-1-oxo-3,4-dihydroisoquinolin-2(1H)-yl)ethyl)nicotinonitrile] | < 10 | 10 to 1000 | 10 to 1000

Second part, led by results:

Row | IC50 (WDR5) [nM] | AC50 [1] [nM] | SMILES | AC50 (MV4-11 cells) [nM]
9 | < 10 | 10 to 1000 | CCOc1cc([C@H](C)N2CCc3c(cc(CCN(C)CC)cc3-c3cc(N)ncc3Cl)C2=O)ncc1C#N [Example 183, (S)-6-(1-(5-(2-amino-5-chloropyridin-4-yl)-7-(2-(ethyl(methyl)amino)ethyl)-1-oxo-3,4-dihydroisoquinolin-2(1H)-yl)ethyl)-4-ethoxynicotinonitrile] | 10 to 1000
10 | < 10 | 10 to 1000 | CCOc1cc([C@H](C)N2CCc3c(cc(CCN(C)CC)cc3-c3cc(C(C)(C)O)ncc3C)C2=O)ncc1C#N [Example 184, (S)-4-ethoxy-6-(1-(7-(2-(ethyl(methyl)amino)ethyl)-5-(2-(2-hydroxypropan-2-yl)-5-methylpyridin-4-yl)-1-oxo-3,4-dihydroisoquinolin-2(1H)-yl)ethyl)nicotinonitrile] | 10 to 1000
11 | < 10 | 10 to 1000 | CCOc1cc([C@H](C)N2CCc3c(cc(CCN(C)CC)cc3-c3cc(C(C)=O)cnc3C)C2=O)ncc1C#N [Example 185, (S)-6-(1-(5-(5-acetyl-2-methylpyridin-3-yl)-7-(2-(ethyl(methyl)amino)ethyl)-1-oxo-3,4-dihydroisoquinolin-2(1H)-yl)ethyl)-4-ethoxynicotinonitrile] | 10 to 1000
12 | < 10 | 10 to 1000 | CCOc1cc([C@H](C)N2CCc3c(cc(CCN(C)CC)cc3-c3cc(C(C)O)cnc3C)C2=O)ncc1C#N (stereo partly drawn) [Example 186, 4-ethoxy-6-((1S)-1-(7-(2-(ethyl(methyl)amino)ethyl)-5-(5-(1-hydroxyethyl)-2-methylpyridin-3-yl)-1-oxo-3,4-dihydroisoquinolin-2(1H)-yl)ethyl)nicotinonitrile] | 10 to 1000
13 | < 10 | 10 to 1000 | CCOc1cc([C@H](C)N2CCc3c(cc(CCN(C)CC)cc3-c3cc(N)cnc3C)C2=O)ncc1C#N [Example 187, (S)-6-(1-(5-(5-amino-2-methylpyridin-3-yl)-7-(2-(ethyl(methyl)amino)ethyl)-1-oxo-3,4-dihydroisoquinolin-2(1H)-yl)ethyl)-4-ethoxynicotinonitrile] | 10 to 1000
14 | < 10 | 10 to 1000 | CCOc1cc([C@H](C)N2CCc3c(cc(CCN(C)CC)cc3-c3cc(OC)ncc3C)C2=O)ncc1C#N [Example 188, (S)-4-ethoxy-6-(1-(7-(2-(ethyl(methyl)amino)ethyl)-5-(2-methoxy-5-methylpyridin-4-yl)-1-oxo-3,4-dihydroisoquinolin-2(1H)-yl)ethyl)nicotinonitrile] | 10 to 1000
15 | < 10 | 10 to 1000 | CCOc1cc(CN2CCc3c(cc(CCN(C)CC)cc3-c3cc(C)nnc3C)C2=O)ncc1C#N [Example 189, 6-((5-(3,6-dimethylpyridazin-4-yl)-7-(2-(ethyl(methyl)amino)ethyl)-1-oxo-3,4-dihydroisoquinolin-2(1H)-yl)methyl)-4-ethoxynicotinonitrile] | 10 to 1000
16 | < 10 | 10 to 1000 | CCOc1cc([C@H](C)N2CCc3c(cc(CCN(C)CC)cc3-c3cn4ccnc4cc3C)C2=O)ncc1C#N [Example 190, (S)-4-ethoxy-6-(1-(7-(2-(ethyl(methyl)amino)ethyl)-5-(7-methylimidazo[1,2-a]pyridin-6-yl)-1-oxo-3,4-dihydroisoquinolin-2(1H)-yl)ethyl)nicotinonitrile] | 10 to 1000
17 | < 10 | 10 to 1000 | CCOc1cc([C@H](C)N2CCc3c(cc(CCN(C)CC)cc3-c3c(OC)ccnc3C)C2=O)ncc1C#N [Example 191, 4-ethoxy-6-((1S)-1-(7-(2-(ethyl(methyl)amino)ethyl)-5-(4-methoxy-2-methylpyridin-3-yl)-1-oxo-3,4-dihydroisoquinolin-2(1H)-yl)ethyl)nicotinonitrile] | 10 to 1000
